Laboratory results taken from patent US12012415B2, “Compositions and methods for the diagnosis, treatment and prevention of neoplastic and neurological disorders” (AscentGene, Inc., priority 2018, dated 2024).

What was measured:
PC4 protein = PC4 protein (Homo sapiens, UniProt P53999); test: PC4-DNA binding interference; details: high-throughput screen platform
Method: A number of small molecules were incubated with PC4 protein and DNA binding assessed.

SIRT1 and p-CREB = test: Western blot of SIRT1, CREB and p-CREB in hippocampus, Aβ1-42 AD rat model; assay type: in vivo, rats; details: vs Aβ1-42 group
Method: Aβ1-42 (Sigma-Aldrich, St. Louis, MO, USA;) was dissolved in double-distilled water at the concentration of 5 μg/μl, and incubated at 37° C. for one week before surgery. The rats were randomly divided into four groups as Sham (n=8), Sham+AG-1601 (n=8), Aβ1-42 (n=8) and Aβ1-42+AG-1601 (n=8). The Alzheimer's disease rat models were established by intracerebroventricular (i.c.v.) injection of Aβ1-42 aggregates. The animals were anesthetized with intraperitoneal injection of pentobarbital sodium (50 mg/kg) and placed in a stereotaxic apparatus (Narishige, Japan). The head skin of the rat was opened and two small holes were drilled on both sides of skull following the coordinates: 0.8 mm posterior to bregma, +1.4 mm lateral to sagittal suture, 4.0 mm beneath the surface of brain. Aβ1-42 (2.0 μl per side) was injected bilaterally into the lateral ventricles through micro-syringe. The needle was taken out after 5 minutes of the injection to ensure the aggregates were infused completely. Rats in the Sham group underwent the same operational process, but same volumes of double-distilled water were injected instead of Aβ1-42. After surgery, all rats were injected with penicillin (100,000 U) in the hindquarter muscle to prevent infection. The animals of Sham+AG-1601 and Aβ1-42+AG-1601 groups were intravenous injection with AG-1601 (1 mg/kg), while the same volume vehicle was implemented for the other groups every day for 14 days after one week of the postoperative recovery.
Three rats of each group were randomly selected to be sacrificed and their hippocampal tissues were immediately removed at 0° C. and stored at minus 80° C. For subcellular fractionation, 100- to 200-mg weight rat hippocampal tissue was used. The procedure has been described (Yang et al., 2017). The tissues were homogenized for 30 s in 500 μl TEVP buffer containing 320 mM sucrose and the homogenate was obtained. The homogenate (H) was centrifuged at 900×g for 10 min at 4° C., and the supernatant (S1) was centrifuged for 20 min at 10000×g at 4° C. to obtain the cytosolic/light membrane fraction (S2) and the crude synaptosomal fraction pellet (P2). The pellet was resuspended in TEVP buffer containing 35.6 mM sucrose solution and then centrifuged at 25,000×g for 20 min at 4° C. The supernatant was stored at minus 80° C. and referred as the synaptic vesicular fraction (LS1). The pellet, synaptic plasma membranes (LP1), was resuspended in TEVP buffer containing 1% Triton X-100 and centrifuged at 330,000×g for 30 min at 4° C. The supernatant referred as Triton X-100-soluble fraction (TSF) was stored at minus 80° C. The final pellet, the Triton X-100-insoluble fraction (TIF), was homogenized in TEVP buffer containing 1% SDS.
The total homogenate (H) and synaptosomal fractions were analyzed. Equal amounts of 20 μg from each sample were separated via 10% or 13% SDS-PAGE gels and subsequently transferred onto PVDF membranes (Millipore, USA). […] After washing with TBST buffer, signals were visualized with the HRP substrate (Millipore, USA) and detected with a chemiluminescence kit (Tanon 5500, Tanon Science & Technology, China). The gray-scale value of protein band was quantified by NIH Image J program.

U87 cells = test: Cell viability, combination with TMZ in U87 cells; assay type: cell-based, human
Method: Human glioma cell lines of U251, SF539, SF295 were obtained from NCI/DTP and U87 was obtained from ATCC. U251, SF539, and SF295 cells were grown in RPMI (Gibco) medium; U87 cells were grown in EMEM medium (ATCC), all the cells culture media containing 10% FBS and 100 unit/ml of Penicillin-Streptomycin, and cells were incubated in a 37 °C/5% CO2 humidified hood. One day before chemical compounds treatment, four kinds of cells U251, SF539, SF295, and U87 were seeded in 96-well plates at 10,000 cells/well (100 μl) with triplicate. The culture medium was removed and cells were treated with a series different concentration of AG1601/in correspond fresh media. Following an additional incubation of 48 hours at 37° C./5% CO2, cells proliferation assay was performed with Cell Counting Kit-8 (Dojindo Laboratories, #CK04), added 10 μl of reagent to the cells in each well after replacing with 100 μl of fresh media, mix well, following an additional 2 to 3 hours incubation at 37° C./5% CO2, read wavelengths of OD450 nm in a 96-well plate reader (Victor 2, 1420 Multilabel counter), data analysis were performed with Excel and it is platted as relative mean OD450 nm+/−standard error of the mean.
Cells were treated with indicated content of AG-1601 for 48 hours, then followed by performance of cell viability assays. […]

**Q.** How did the PC4 inhibition (PC4 protein) turn out when `C=CC1=C(C)c2cc3[nH]c(cc4nc(cc5[nH]c(cc1n2)c(C)c5C=C)C(C)=C4CCC(=O)O)c(CCC(=O)NCCCc1ccccc1)c3C` [AG-1601, 3-(2,8,13,18-tetramethyl-3-(3-oxo-3-((3-phenylpropyl)amino)propyl)-12,17-divinylporphyrin-7-yl)propanoic acid] was run?
**A.** strong PC4 inhibitor

**Q.** What about the SIRT1 protein level (SIRT1 and p-CREB) of the same compound?
**A.** the decline was prevented

**Q.** What about the “expression of CREB” value (SIRT1 and p-CREB) of the same compound?
**A.** rescued the reductions

**Q.** What about the p-CREB level (SIRT1 and p-CREB) of the same compound?
**A.** significantly increased

**Q.** And the SIRT1 protein level (SIRT1 and p-CREB; listed as AG-1061)?
**A.** this decline was prevented

**Q.** What about the p-CREB level (SIRT1 and p-CREB; listed as AG-1061) of the same compound?
**A.** significantly increased the expression of p-CREB protein

**Q.** And the “potentiation of the effect of TMZ” value (U87 cells)?
**A.** potentiates the effect of TMZ
